Converted amounts (≈) assume the structure as drawn. Read-outs that look alike come from different tables or passages of the source.
Columns and labels:
Format in all cases: cell-based
[1] = test system: SA1707 S. aureus ermA negative msrA positive; experiment: broth dilution MIC, S. aureus SA1707; settings: Staphylococcus aureus
From the text: (§1) We have collected MIC data for a total of 50 novel macrolides that this platform has produced against over 21 unique strains of B. subtilis, E. coli, S. aureus, S. pneumoniae, and H. influenzae, including several multidrug-resistant strains, with a special focus on macrolide resistant mechanisms (vide supra). Azithromycin was included as a control macrolide. CLSI standard procedures for broth dilution MIC determination were used. […] These genotypes can be constitutive or inducible. The finding that C4-epi (unnatural) isomers of the “azaketolide” macrolide class have enhanced activities relative to C4 natural isomers is very exciting.

[2] = test system: SA101 S. aureus ATCC29213; experiment: broth dilution MIC, S. aureus SA101; settings: Staphylococcus aureus
Procedure, shortened: (§2)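 An azithromycin control accompanied the test macrolides, which were assayed by CLSI-standard broth microdilution-type MIC determination. Some strains carry constitutive or inducible macrolide-resistance genotypes.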

[3] = test system: SA418 S. aureus ermA negative msrA positive; experiment: broth dilution MIC, S. aureus SA418; settings: Staphylococcus aureus
From the text: as §1

[4] = test system: BS1723 B. subtilis BS168 WT wild type; experiment: broth dilution MIC, B. subtilis BS1723; settings: Bacillus subtilis, BS1723 B. subtilis BS168 WT wild type; read-out: MIC
Procedure, shortened: as §2

EC882 E. coli imp = experiment: broth dilution MIC, E. coli EC882; settings: Escherichia coli
Procedure, shortened: as §2

[5] = test system: Spn1509 S. pneumoniae ermB positive mefA negative; experiment: broth dilution MIC, S. pneumoniae Spn1509; settings: Streptococcus pneumoniae
From the text: as §1

EC878 E. coli tolC = experiment: broth dilution MIC, E. coli EC878; settings: Escherichia coli
Procedure, shortened: as §2

[6] = test system: SA557 S. aureus ermA unknown msrA positive; experiment: broth dilution MIC, S. aureus SA557; settings: Staphylococcus aureus
From the text: as §1

BS1725 B. subtilis ermC = experiment: broth dilution MIC, B. subtilis BS1725; settings: Bacillus subtilis
Procedure, shortened: as §2

[7] = test system: Spn160 S. pneumoniae ermB unknown mefA positive; experiment: broth dilution MIC, S. pneumoniae Spn160; settings: Streptococcus pneumoniae
From the text: as §1

[8] = test system: Spn1537 S. pneumoniae ermB positive mefA positive; experiment: broth dilution MIC, S. pneumoniae Spn1537; settings: Streptococcus pneumoniae
From the text: as §1

[9] = test system: Spn1533 S. pneumoniae ermB positive mefA positive; experiment: broth dilution MIC, S. pneumoniae Spn1533; settings: Streptococcus pneumoniae
From the text: as §1

[10] = test system: SA183 S. aureus ermA positive msrA unknown; experiment: broth dilution MIC, S. aureus SA183; settings: Staphylococcus aureus
From the text: as §1

[11] = test system: Spn1427 S. pneumoniae ermB positive mefA negative; experiment: broth dilution MIC, S. pneumoniae Spn1427; settings: Streptococcus pneumoniae
From the text: as §1

EC107 E. coli ATCC25922 = experiment: broth dilution MIC, E. coli EC107; settings: Escherichia coli, read-out: MIC
Procedure, shortened: as §2

[12] = test system: SA1708 S. aureus ermA positive msrA negative; experiment: broth dilution MIC, S. aureus SA1708; settings: Staphylococcus aureus
From the text: as §1

[13] = test system: SA506 S. aureus ermA positive msrA unknown; experiment: broth dilution MIC, S. aureus SA506; settings: Staphylococcus aureus
From the text: as §1

[14] = test system: Spn 106 S. pneumonia ATCC49619; experiment: broth dilution MIC, S. pneumoniae Spn 106; settings: Streptococcus pneumoniae; Spn 106 S. pneumonia ATCC49619; read-out: MIC
From the text: as §1

E. coli (MC4100) = experiment: MIC, E. coli MC4100; settings: Escherichia coli, round 2, read-out: MIC
From the text: as §1

H. influenzae strains = experiment: MIC against H. influenzae strains (Table M8); settings: Haemophilus influenzae
Procedure, shortened: as §2

S. pneumoniae strains = experiment: MIC against S. pneumoniae strains (Tables M7, M8); settings: Streptococcus pneumoniae
From the text: CLSI standard procedures for broth dilution MIC determination were used. […] These genotypes can be constitutive or inducible.

A. baumannii strains = experiment: MIC against A. baumannii strains (Table M8); settings: Acinetobacter baumannii, BAA747, A. baumannii BAA747-1
E. faecalis strains = experiment: MIC against E. faecalis strains (Table M8); settings: Enterococcus faecalis, E. faecalis 29212
HI281 H. influenzae = experiment: broth dilution MIC, H. influenzae HI281; settings: Haemophilus influenzae
From the text: as §1

E. coli strains = experiment: MIC against E. coli strains (Table M7); settings: Escherichia coli, ATCC25922, E. coli ATCC 25922
Procedure, shortened: as §2

S. aureus strains = experiment: MIC against S. aureus strains (Table M7); settings: Staphylococcus aureus
Procedure, shortened: as §2

[15] = test system: S. aureus (Newman, clinical isolate); experiment: MIC, S. aureus Newman; settings: Staphylococcus aureus, S. aureus (Neuman, clinical isolate), round 2
From the text: as §1

[16] = test system: HI175 H. influenzae ATCC49247; experiment: broth dilution MIC, H. influenzae HI175; settings: Haemophilus influenzae
From the text: as §1

K. pneumoniae strains = experiment: MIC against K. pneumoniae strains (Table M8); settings: Klebsiella pneumoniae, K. pneumoniae 10031
[17] = Spn160 S. pneumoniae ermB unknown mefA positive, read-out: MIC
[18] = Spn1509 S. pneumoniae ermB positive mefA negative, read-out: MIC
[19] = SA557 S. aureus ermA unknown msrA positive, read-out: MIC

Row | SMILES | MIC [1] [µg/mL] | MIC [3] [µg/mL] | MIC [4] [µg/mL] | MIC (EC882 E. coli imp) [µg/mL] | MIC (EC878 E. coli tolC) [µg/mL] | MIC (BS1725 B. subtilis ermC; BS1725 B. subtilis ermC (+ery)) [µg/mL] | MIC [7, 17] [µg/mL] | MIC [8] [µg/mL] | MIC [9] [µg/mL] | MIC [10] [µg/mL] | MIC [11] [µg/mL] | MIC (EC107 E. coli ATCC25922) [µg/mL] | MIC [12] [µg/mL] | MIC [13] [µg/mL] | MIC [14] [µg/mL] | MIC [5, 18] [µg/mL] | MIC [6, 19] [µg/mL] | MIC [16] [µg/mL] | other results
1 | CCC[C@@H]1C[C@@H](C(=O)N[C@@H]([C@H]2O[C@H](SC)[C@H](O)[C@@H](O)[C@H]2O)[C@H](C)Cl)N(C)C1 [Clindamycin, clindamycin, reference compound] | 0.0625 to 0.125 (≈ 0.147 to 0.294 µM) | 0.0625 to 0.125 (≈ 0.147 to 0.294 µM) | 1 (≈ 2.35 µM) | 2 (≈ 4.71 µM) | 2 (≈ 4.71 µM) | 4 (≈ 9.41 µM) | 0.0156 to 0.0312 (≈ 0.0367 to 0.0734 µM) | > 32 | > 32 | > 32 | > 32 | > 32 | 0.25 (≈ 0.588 µM) | > 32 | 0.0312 (≈ 0.0734 µM) | – | – | – | MIC ([2]; ATCC29213): 0.125 µg/mL (≈ 0.294 µM); MIC [5]: 16 to 32 µg/mL (≈ 37.6 to 75.3 µM); MIC [6]: 0.125 µg/mL (≈ 0.294 µM); MIC (BS1725 B. subtilis ermC; BS1725 B. subtilis ermC (−ery)): 2 µg/mL (≈ 4.71 µM)
2 | CC[C@H]1OC(=O)[C@H](C)C(=O)[C@H](C)[C@@H](O[C@@H]2OC(C)CC(N(C)C)C2O)[C@](C)(OC)C[C@@H](C)CN[C@H](C)[C@H]2N(CCCCn3cc(-c4cccc(N)c4)nn3)C(=O)O[C@]12C (stereo partly shown) [FSM-20707] | 0.5 to 2 (≈ 0.604 to 2.42 µM) | 1 (≈ 1.21 µM) | 0.5 (≈ 0.604 µM) | 0.0625 (≈ 0.0755 µM) | 0.5 (≈ 0.604 µM) | 8 (≈ 9.66 µM) | – | 32 (≈ 38.6 µM) | – | > 32 | – | 8 (≈ 9.66 µM) | 1 to 2 (≈ 1.21 to 2.42 µM) | > 32 | 0.0156 to 0.0312 (≈ 0.0188 to 0.0377 µM) | 0.25 to 2 (≈ 0.302 to 2.42 µM) | 0.5 to 1 (≈ 0.604 to 1.21 µM) | 1 to 2 (≈ 1.21 to 2.42 µM) | MIC (E. coli (MC4100)): 4 µg/mL (≈ 4.83 µM); MIC (H. influenzae strains; H. influenzae 49247, read-out: MIC H. influenzae (49247)): 0.5 µg/mL (≈ 0.604 µM); MIC (H. influenzae strains; H. influenzae 49766, read-out: MIC H. influenzae (49766)): 2 µg/mL (≈ 2.42 µM); MIC (S. pneumoniae strains; S. pneumoniae 160, read-out: MIC S. pneumonae (160)): 0.125 µg/mL (≈ 0.151 µM); MIC (S. pneumoniae strains; S. pneumoniae 1509, read-out: MIC S. pneumoniae (1509)): 1 µg/mL (≈ 1.21 µM); MIC (S. pneumoniae strains; S. pneumoniae 1533, read-out: MIC S. pneumoniae (1533)): > 32 µg/mL; MIC (S. pneumoniae strains; S. pneumoniae 1537, read-out: MIC S. pneumoniae (1537)): > 32 µg/mL; MIC (S. pneumoniae strains; read-out: MIC S. pneumoniae (49619)): ≤ 0.0625 µg/mL; MIC (A. baumannii strains): 8 µg/mL (≈ 9.66 µM); MIC (E. faecalis strains): 0.25 µg/mL (≈ 0.302 µM); MIC [7]: 0.0625 to 0.125 µg/mL (≈ 0.0755 to 0.151 µM); MIC (HI281 H. influenzae): 4 µg/mL (≈ 4.83 µM); MIC (E. coli strains): 4 µg/mL (≈ 4.83 µM); MIC (S. aureus strains; ATCC29213, S. aureus ATCC 29213, read-out: MIC S. aureus (ATCC 29213)): 1 µg/mL (≈ 1.21 µM); MIC (S. aureus strains; S. aureus 183, read-out: MIC S. aureus (183)): > 32 µg/mL; MIC (S. aureus strains; S. aureus 506, read-out: MIC S. aureus (506)): > 32 µg/mL; MIC (S. aureus strains; S. aureus 1708, read-out: MIC S. aureus (1708)): 1 µg/mL (≈ 1.21 µM); MIC (S. aureus strains; USA300, S. aureus USA300, read-out: MIC S. aureus (USA300)): 4 µg/mL (≈ 4.83 µM); MIC [15]: 0.5 µg/mL (≈ 0.604 µM); MIC (K. pneumoniae strains): 2 µg/mL (≈ 2.42 µM)
3 | CC[C@H]1OC(=O)C(C)(F)C(=O)[C@@H](C)[C@@H](O[C@@H]2OC(C)CC(N(C)C)C2O)[C@](C)(OC)C[C@@H](C)CN[C@H](C)[C@H]2N(CCCCn3cc(-c4cccc(N)n4)nn3)C(=O)O[C@]12C (stereo partly shown) [FSM-20718] | 32 (≈ 37.8 µM) | 16 (≈ 18.9 µM) | 8 (≈ 9.44 µM) | 0.125 (≈ 0.148 µM) | 1 (≈ 1.18 µM) | > 32 | 0.25 to 1 (≈ 0.295 to 1.18 µM) | > 32 | > 32 | > 32 | 4 to 32 (≈ 4.72 to 37.8 µM) | > 32 | 16 (≈ 18.9 µM) | > 32 | 0.0156 to 0.25 (≈ 0.0184 to 0.295 µM) | 0.5 to 4 (≈ 0.59 to 4.72 µM) | 8 (≈ 9.44 µM) | 2 to 16 (≈ 2.36 to 18.9 µM) | MIC ([2]; ATCC29213, SA101 S. aureus ATCC29213, read-out: MIC): 8 µg/mL (≈ 9.44 µM)
